Series [1] deals with PCSK9 secreted by HepG2 cells (Homo sapiens (Human), UniProt Q8NBP7). Description: Effect on the concentration of PCSK9 secreted by HepG2 cells (ELISA). Particulars: 48 hours incubation, read-out: Inhibitory activity on PCSK9, IC50. The format is cell-based. A general note: ELISA stands for enzyme-linked immunosorbent assay.
The subject of series [2] is LDLR level in HepG2 cells. Briefly: Effect on the LDLR level in HepG2 cells (ELISA). The format is cell-based, human. Also on record: concentration or dose not given beside the values. Particulars: 48 hours incubation, LDLR ELISA of lysate. How it is done: To detect the effect of the compounds on the LDLR protein level.
Envision (PE-Cisbio: 2105-0020), centrifuge (Eppendorf: 5810R), water purifier (THERMO: Pacific T II+Micropure), plate washer (Thermo: […] VERSA), and microplate shaker (Thermo: 88882006)
• 1) HepG2 cell strain was cultured in the complete culture medium at 37° C., 5% CO2 to 70-90% confluence. • 2) The cells were digested and resuspended in the experimental culture medium, inoculation was performed at 25,000 cells/well/200 μL in a 96-well cell culture plate, and the cells were cultured at 37° C., 5% CO2 for 20-24 hours. • 3) The culture medium was removed from the cell culture plate, and the cell culture plate was washed once by adding 200 μl of the experimental culture medium to each well. • 4) Preparation of positive control compound and compound to be tested: the positive control compound and the compound to be tested were diluted on the compound plate. • 5) The diluted compound was added to the cell culture plate at 250 μL per well and incubated at 37° C. and 5% CO2 for 48 hours. • 6) The cell culture medium was removed, the cells were washed with PBS, and 50 μL of the cell lysis buffer and the protein inhibitor were added. • 7) After centrifugation, the lysate was removed and the sample was stored for later use. • 8) Preparation of standard curve: corresponding volumes of Dilution buffer were successively added to respective standard tubes, and the standard was diluted in series by taking the corresponding volume from the original tube or the last concentration tube. • 9) Preparation of washing liquid: 10× Wash buffer was diluted into 1× with Milli-Q for later use. • 10) According to the standard curve wells and sample wells set according to a plate map, 80 μL/well of the corresponding standards and samples were added to the wells, with 2 replicate wells. A well in which no standard was added was used as a background value well. A self-adhesive seal was applied, the plate was placed on a plate shaker at room temperature, gently shaken, uniformly mixed, and incubated for 2 hours. • 11) The plate was placed on the plate washer, the washing liquid was set to 350 μL per well, and the plate was washed 4 times repeatedly. • 12) 200 μL of Human LDLR conjugate was added, a self-adhesive seal was applied, and the plate was placed on the plate shaker, well mixed uniformly, and incubated for 2 hours. • 13) The plate was placed on the plate washer, the washing liquid was set to 350 μL per well, and the plate was washed 4 times repeatedly. • 14) 200 μL/well of Substrate solution was added, and the plate was placed in the dark, applied with a self-adhesive seal, placed on the plate shaker, well mixed uniformly, and incubated for 20 minutes. • 15) 50 μL/well of Stop solution was added and mixed uniformly over 20 min. • 16) The optical density (OD) value in each well was measured in sequence at a wavelength of 450 nm by the microplate reader.
After the OD values were read by the microplate reader, the OD value of the 0-concentration standard in the standard group was subtracted from the OD values of the standards, control group, and samples to obtain the actual OD values for these wells. A standard curve was plotted with Graphpad and the concentration of the sample was calculated. If the dilution was performed during the sample detection, the calculated sample concentration was necessarily multiplied by the corresponding dilution ratio in the final calculation, which was the actual concentration of the sample. Concentration increase %=(actual concentration in control-actual concentration in sample)/actual concentration in control*100.

A short description of series [3]: Pharmacokinetic determination in mice (plasma). The format is in vivo, C57BL/6J mice. Particulars: C57 mice, PO administration, 5 mpk; for AUC(0-inf) / half-life / MRT / Cmax: male, C57BL/6J, mouse, 5 mg/kg; for AUC(0-inf): read-out: Area under the curve AUC0-∞; for half-life: read-out: Half-life t1/2 (converted); for MRT: read-out: Mean residence time MRT; for Cmax: read-out: Plasma concentration Cmax. The method, boiled down:
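Male C57BL/6J mice (n=3 per route), fasted overnight, got 5 mg/kg PO in 10% Solutol HS15 or 1 mg/kg IV in 5% DMSO/10% Solutol HS15/85% PBS. Orbital blood was sampled at 0.083 (IV only), 0.25, 0.5, 1, 2, 4, 8 and 24 h. EDTA-K2 plasma was quantified by LC-MS/MS for PK parameters.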

Series [4] has as its system hyperlipidemia animal model of B6-hPCSK9 transgenic mice. Briefly: In vivo pharmacodynamics in hyperlipidemia animal model of B6-hPCSK9 transgenic mice. Further details: species or system B6-hPCSK9 transgenic C57 mice. Conditions: PO administration, Day 14, high-fat feed. On the procedure: The compounds of the present disclosure were evaluated for in vivo pharmacodynamics in a hyperlipidemia animal model of B6-hPCSK9 transgenic mice.
B6-hPCSK9 transgenic C57 mice, 6-8 weeks old, male, purchased from Jiangsu GemPharmatech Co., Ltd.
After delivery to a barrier system, the animals were given one week for acclimatization and began to feed on the high-fat feed. The body weight and feed weight were weighed once a week, and the body weight and food intake thereof were recorded.
a. The animals were grouped by a random grouping method.
c. According to the grouping results, administration with the test drug was started (mode of administration: oral administration; administration volume: 10 mL/kg; frequency of administration: once/day or single administration; administration cycle: 21 days; vehicle: 10% Solutol HS 15/90% Saline).
d. After the test drug was administered, the body weight and feed weight were weighed twice a week and blood was taken once a week.
e. The data was processed with software such as Excel. […] PCSK9 in plasma was detected by ELISA.

Another series concerns the target PCSK9 protein (Homo sapiens (Human), UniProt Q8NBP7). Description: Binding experiment: surface plasmon resonance (SPR) binding to PCSK9 protein. The source says:
• 1. Experimental objective: To detect the action of compounds to bind PCSK9 protein by a conventional surface plasmon resonance (SPR) method.

Chain of PCSK9 secreted by HepG2 cells (Q8NBP7 153-692): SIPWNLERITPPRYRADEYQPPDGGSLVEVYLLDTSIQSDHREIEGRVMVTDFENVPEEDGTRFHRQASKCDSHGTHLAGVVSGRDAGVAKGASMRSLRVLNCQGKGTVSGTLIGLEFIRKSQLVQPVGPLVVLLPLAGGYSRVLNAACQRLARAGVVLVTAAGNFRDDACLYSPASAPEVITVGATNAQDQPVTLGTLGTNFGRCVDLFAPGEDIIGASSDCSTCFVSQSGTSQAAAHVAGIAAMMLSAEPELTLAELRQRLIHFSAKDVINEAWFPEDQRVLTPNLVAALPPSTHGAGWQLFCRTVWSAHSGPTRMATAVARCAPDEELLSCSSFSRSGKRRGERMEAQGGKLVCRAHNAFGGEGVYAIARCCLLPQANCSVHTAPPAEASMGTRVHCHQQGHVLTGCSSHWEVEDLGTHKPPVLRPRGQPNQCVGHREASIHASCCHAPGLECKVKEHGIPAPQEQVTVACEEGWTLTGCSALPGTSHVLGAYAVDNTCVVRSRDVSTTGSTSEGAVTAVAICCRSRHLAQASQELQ
Chain of PCSK9 secreted by HepG2 cells (Q8NBP7 31-152 partner): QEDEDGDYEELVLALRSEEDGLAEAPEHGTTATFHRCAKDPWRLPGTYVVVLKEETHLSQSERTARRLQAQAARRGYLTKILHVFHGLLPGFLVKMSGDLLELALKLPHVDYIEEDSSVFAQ
Chain of PCSK9 protein (Q8NBP7 153-692): as the sequence (Q8NBP7 153-692) above

`N#Cc1cnn2c(-c3ccc(N[C@H]4CC[C@H](Nc5ncc(OC(F)F)cn5)C4)nc3)cccc12` [Example 99, 7-(6-(((1S,3S)-3-((5-(difluoromethoxy)pyrimidin-2-yl)amino)cyclopentyl)amino)-3-yl) pyrazolo[1,5-a]pyridine-3-carbonitrile]: in series [1], the IC50 – broadly, the concentration needed to halve the response being measured – turned out to be 2.6 µM. In series [2], this molecule displayed an LDLR expression level of 274%.
The matching figures for `Fc1cnn2c(-c3ccc(N[C@H]4CC[C@H](Nc5ncc(OC(F)F)cn5)C4)nc3)cccc12` [Example 102, (1S,3S)—N1-(5-(difluoromethoxy)pyrimidin-2-yl)-N^3-(5-(3-fluoropyrazolo[1,5-a]pyridin-7-yl)pyridin-2-yl)cyclopentane-1,3-diamine]: 6.3 µM and 215%.
As to `O=C1c2ncccc2CN1c1ccc(N[C@H]2CC[C@H](Nc3ncc(OC(F)F)cn3)C2)nc1` [Example 57, 6-(6-(((1S,3S)-3-((5-(difluoromethoxy)pyrimidin-2-yl)amino)cyclopentyl)amino)pyridin-3-yl)-5,6-dihydro-7H-pyrrolo[3,4-b]pyridin-7-one], the IC50 in series [1] is 22 µM. Also, in series [3], the Time to peak tmax turned out to be 1 h; the AUC(0-inf) was 41500 ng·h/mL; the half-life is 5.9 h; the MRT (in general, a mean duration of stay, worked out from the concentration-time curve) is 4.8 h. In addition, in series [3], the Cmax was 9960 ng/mL. In addition, in series [4] (3 mpk), the “LDL-C change, Day 14” value is given as −46.22%.
`O=C1c2ncccc2CN1c1ccc(N[C@H]2CC[C@H](Nc3ncc(C(F)(F)F)cn3)C2)nc1` [Example 134, 6-(6-(((1S,3S)-3-((5-(trifluoromethyl)pyrimidin-2-yl)amino)cyclopentyl)amino)-3-yl)-5,6-dihydro-7H-pyrrolo[3,4-b]pyridin-7-one]: in series [1], the IC50 stood at 2.2 µM. Moreover, in series [3], the Time to peak tmax is 2 h, the AUC(0-inf) was 76600 ng·h/mL, the half-life was 4.1 h and the MRT amounted to 5.8 h. The Cmax in series [3] is 9360 ng/mL. Moreover, the “LDL-C change, Day 14” value in series [4] (5 mpk) was −60.65%.
Take `O=C1c2nc(C(F)(F)F)ccc2CN1c1ccc(N[C@H]2CC[C@H](Nc3ncc(C4CC4)nn3)C2)nc1` [Example 159, 6-(6-(((1S,3S)-3-((6-cyclopropyl-1,2,4-triazin-3-yl)amino)cyclopentyl)amino)pyridin-3-yl)-2-(trifluoromethyl)-5,6-dihydro-7H-pyrrolo[3,4-b]pyridin-7-one]: in series [1], the IC50 was 5.9 µM. The same molecule had an LDLR expression level in series [2] of 105%.
For the molecule `O=C1c2cccnc2CN1c1ccc(N[C@H]2CC[C@H](Nc3ncc(OC(F)F)cn3)C2)nc1` [Example 77, 6-(6-(((1S,3S)-3-((5-(difluoromethoxy)pyrimidin-2-yl)amino)cyclopentyl)amino)pyridin-3-yl)-6,7-dihydro-5H-pyrrolo[3,4-b]pyridin-5-one], in series [3], the Time to peak tmax amounted to 0.25 h, the AUC(0-inf) was found to be 8080 ng·h/mL, the half-life is 4.3 h and the MRT is 2.1 h. Moreover, in series [3], the Cmax was determined as 4720 ng/mL. The Kd (as a rule, the constant that tells how readily two partners part at equilibrium) at PCSK9 protein was 0.0015 µM. This molecule came in with an LDLR expression level in series [2] of 117%.
With `O=c1c(-c2ccc(N[C@H]3CC[C@H](Nc4ncc(OC(F)F)cn4)C3)nc2)ccc2ccccn12` [Example 47], in series [1], the IC50 was 18 µM. For the same molecule, in series [2], the LDLR expression level was determined as 859%.
Regarding `O=C1c2ccncc2CN1c1ccc(N[C@H]2CC[C@H](Nc3ncc(OC(F)F)cn3)C2)nc1` [Example 76, 2-(6-(((1S,3S)-3-((5-(difluoromethoxy)pyrimidin-2-yl)amino)cyclopentyl)amino)pyridin-3-yl)-2,3-dihydro-1H-pyrrolo[3,4-c]pyridin-1-one], the IC50 in series [1] is 12.1 µM. Further, the LDLR expression level in series [2] was found to be 156%.
Take `O=C1c2cc(C(F)(F)F)ncc2CN1c1ccc(N[C@H]2CC[C@H](Nc3nc4cc(F)ccn4n3)C2)nc1` [Example 151, 2-(6-(((1S,3S)-3-((7-fluoro-[1,2,4]triazolo[1,5-a]pyridin-2-yl)amino)cyclopentyl)amino)pyridin-3-yl)-6-(trifluoromethyl)-2,3-dihydro-1H-pyrrolo[3,4-c]pyridin-1-one]: the concentration for half-maximal inhibition (IC50) in series [1] is 1.3 µM. In addition, in series [3], the Time to peak tmax was determined as 2 h, the AUC(0-inf) came out at 97700 ng·h/mL, the half-life was 15.1 h and the MRT was found to be 19 h. The Cmax in series [3] was found to be 7420 ng/mL. The molecule further showed an LDLR expression level in series [2] of 138%.
For the molecule `O=S1(=O)CCCCN1c1ccc(N[C@H]2CC[C@H](Nc3ncc(OC(F)F)cn3)C2)nc1` [Example 92, 2-(6-(((1S,3S)-3-((5-(difluoromethoxy)pyrimidin-2-yl)amino)cyclopentyl)amino)pyridin-3-yl)-1,4-butanesulfolactam], the IC50 in series [1] is 16.3 µM. Moreover, the LDLR expression level in series [2] was 105%.
As to `O=c1ccccn1-c1ccc(N[C@H]2CC[C@H](Nc3ncc4cccn4n3)C2)nc1` [Example 20, 6′-(((1S,3S)-3-(pyrrolo[2,1-f][1,2,4]triazin-2-ylamino)cyclopentyl)amino)-2H-[1,3′-bipyridinyl]-2-one], the IC50 in series [1] worked out at 14 µM. Besides, the affinity on PCSK9 protein, expressed as Kd, was 0.0024 µM. The same molecule yielded an LDLR expression level in series [2] of 302%.
Consider `CC(C)(C)c1ccc2c(n1)C(=O)N(c1ccc(N[C@H]3CC[C@H](Nc4nc5cc(F)ccn5n4)C3)nc1)C2` [Example 164, 2-(Tert-butyl)-6-(6-(((1S,3S)-3-((7-fluoro-[1,2,4]triazolo[1,5-a]pyridin-2-yl)amino)cyclopentyl)amino)pyridin-3-yl)-5,6-dihydro-7H-pyrrolo[3,4-b]pyridin-7-one], for which the IC50 in series [1] was 2.8 µM. Besides, the LDLR expression level in series [2] stood at 254%.
For the molecule `FC(F)Oc1cnc(N[C@H]2CC[C@H](Nc3ccc(-c4cccn5ccnc45)cn3)C2)nc1` [Example 53], the IC50 in series [1] turned out to be 24.1 µM. Also, the LDLR expression level in series [2] is given as 175%.
On to `FC(F)Oc1cnc(N[C@H]2CC[C@H](Nc3ccc(-c4cccc5ccnn45)cn3)C2)nc1` [Example 52, (1S,3S)—N1-(5-(difluoromethoxy)pyrimidin-2-yl)-N3-(5-(pyrazolo[1,5-a]pyridin-7-yl)pyridin-2-yl)cyclopentane-1,3-diamine], for which, in series [1], the 50% inhibitory concentration (IC50) is 11 µM. Also, the LDLR expression level in series [2] is given as 278%.
